Our source for the 3 h FOB score values is the OligoGym collection.

The series addresses SMN2. Put plainly: mouse, dose not given. Conditions: ASO.

HELM strings list units from the 5' end as sugar, base in round brackets, then linkage (d deoxyribose, r ribose, m 2'-O-methyl, p phosphodiester). Strings are as the collection lists them; they lack the last nucleoside at the 3' end of the tested compound. [moe] = 2'-O-(2-methoxyethyl) (MOE); [sp] = phosphorothioate linkage; [m5C] = 5-methylcytosine

“RNA1{[moe]([m5C])[sp].[moe](A)[sp].[moe]([m5C])[sp].[moe](T)[sp].[moe](T)[sp].[moe](T)[sp].[moe]([m5C])[sp].[moe](A)p.[moe](T)p.[moe](A)[sp].[moe](A)[sp].[moe](T)[sp].[moe](G)[sp].[moe]([m5C])[sp].[moe](T)[sp].[moe](G)[sp].[moe](G)}$$$$ (last 3' nucleoside missing)” returned a 3 h FOB score of 0 score 0-7.
As for “RNA1{[moe](T)[sp].[moe]([m5C])[sp].[moe](A)[sp].[moe]([m5C])[sp].[moe](T)[sp].[moe](T)[sp].[moe](T)[sp].[moe]([m5C])[sp].[moe](A)[sp].[moe](T)[sp].[moe](A)[sp].[moe](A)p.[moe](T)[sp].[moe](G)[sp].[moe]([m5C])[sp].[moe](T)[sp].[moe](G)}$$$$ (last 3' nucleoside missing)”, the 3 h FOB score was found to be 3.5 score 0-7.
The result for “RNA1{[moe]([m5C])[sp].[moe](A)[sp].[moe]([m5C])[sp].[moe](T)[sp].[moe](T)[sp].[moe](T)[sp].[moe]([m5C])p.[moe](A)p.[moe](T)p.[moe](A)p.[moe](A)p.[moe](T)p.[moe](G)[sp].[moe]([m5C])[sp].[moe](T)[sp].[moe](G)[sp].[moe](G)}$$$$ (last 3' nucleoside missing)” reads 0 score 0-7; that for “RNA1{[moe](A)[sp].[moe](T)p.[moe](T)[sp].[moe]([m5C])[sp].[moe](A)[sp].[moe]([m5C])[sp].[moe](T)[sp].[moe](T)[sp].[moe](T)[sp].[moe]([m5C])[sp].[moe](A)[sp].[moe](T)[sp].[moe](A)[sp].[moe](A)[sp].[moe](T)[sp].[moe](G)[sp].[moe]([m5C])[sp].[moe](T)[sp].[moe](G)}$$$$ (last 3' nucleoside missing)”, 4 score 0-7.
The figure for “RNA1{[moe]([m5C])[sp].[moe](A)[sp].[moe]([m5C])p.[moe](T)[sp].[moe](T)[sp].[moe](T)[sp].[moe]([m5C])[sp].[moe](A)[sp].[moe](T)[sp].[moe](A)[sp].[moe](A)[sp].[moe](T)[sp].[moe](G)[sp].[moe]([m5C])[sp].[moe](T)p.[moe](G)[sp].[moe](G)}$$$$ (last 3' nucleoside missing)” is 0 score 0-7; for “RNA1{[moe]([m5C])[sp].[moe](A)p.[moe]([m5C])[sp].[moe](T)p.[moe](T)[sp].[moe](T)[sp].[moe]([m5C])[sp].[moe](A)[sp].[moe](T)[sp].[moe](A)[sp].[moe](A)[sp].[moe](T)[sp].[moe](G)[sp].[moe]([m5C])[sp].[moe](T)[sp].[moe](G)[sp].[moe](G)}$$$$ (last 3' nucleoside missing)” it is 0 score 0-7.
The substance “RNA1{[moe](T)[sp].[moe]([m5C])p.[moe](A)p.[moe]([m5C])[sp].[moe](T)[sp].[moe](T)[sp].[moe](T)[sp].[moe]([m5C])[sp].[moe](A)[sp].[moe](T)[sp].[moe](A)[sp].[moe](A)[sp].[moe](T)[sp].[moe](G)[sp].[moe]([m5C])[sp].[moe](T)[sp].[moe](G)}$$$$ (last 3' nucleoside missing)” displayed a 3 h FOB score of 4.75 score 0-7.
As for “RNA1{[moe](T)[sp].[moe](T)p.[moe]([m5C])[sp].[moe](A)p.[moe]([m5C])[sp].[moe](T)[sp].[moe](T)[sp].[moe](T)[sp].[moe]([m5C])[sp].[moe](A)[sp].[moe](T)[sp].[moe](A)[sp].[moe](A)[sp].[moe](T)[sp].[moe](G)[sp].[moe]([m5C])[sp].[moe](T)[sp].[moe](G)}$$$$ (last 3' nucleoside missing)”, the 3 h FOB score amounted to 2.25 score 0-7.
“RNA1{[moe](T)[sp].[moe](T)[sp].[moe]([m5C])[sp].[moe](A)[sp].[moe]([m5C])[sp].[moe](T)[sp].[moe](T)[sp].[moe](T)[sp].[moe]([m5C])p.[moe](A)[sp].[moe](T)[sp].[moe](A)[sp].[moe](A)[sp].[moe](T)[sp].[moe](G)[sp].[moe]([m5C])p.[moe](T)[sp].[moe](G)}$$$$ (last 3' nucleoside missing)” displayed a 3 h FOB score of 2 score 0-7.
The figure for “RNA1{[moe](A)[sp].[moe]([m5C])[sp].[moe](T)[sp].[moe](T)[sp].[moe](T)[sp].[moe]([m5C])[sp].[moe](A)[sp].[moe](T)p.[moe](A)p.[moe](A)p.[moe](T)[sp].[moe](G)[sp].[moe]([m5C])[sp].[moe](T)[sp].[moe](G)[sp].[moe](G)}$$$$ (last 3' nucleoside missing)” is 1 score 0-7; for “RNA1{[moe](T)[sp].[moe](T)[sp].[moe]([m5C])[sp].[moe](A)[sp].[moe]([m5C])[sp].[moe](T)[sp].[moe](T)[sp].[moe](T)[sp].[moe]([m5C])p.[moe](A)[sp].[moe](T)[sp].[moe](A)[sp].[moe](A)[sp].[moe](T)[sp].[moe](G)[sp].[moe]([m5C])[sp].[moe](T)[sp].[moe](G)}$$$$ (last 3' nucleoside missing)” it is 3.75 score 0-7.
The figure for “RNA1{[moe]([m5C])[sp].[moe](A)p.[moe]([m5C])[sp].[moe](T)[sp].[moe](T)[sp].[moe](T)[sp].[moe]([m5C])[sp].[moe](A)[sp].[moe](T)[sp].[moe](A)p.[moe](A)[sp].[moe](T)[sp].[moe](G)[sp].[moe]([m5C])[sp].[moe](T)[sp].[moe](G)[sp].[moe](G)}$$$$ (last 3' nucleoside missing)” is 0 score 0-7; for “RNA1{[moe](T)[sp].[moe](T)[sp].[moe]([m5C])[sp].[moe](A)[sp].[moe]([m5C])[sp].[moe](T)[sp].[moe](T)[sp].[moe](T)[sp].[moe]([m5C])[sp].[moe](A)[sp].[moe](T)[sp].[moe](A)[sp].[moe](A)[sp].[moe](T)[sp].[moe](G)[sp].[moe]([m5C])p.[moe](T)[sp].[moe](G)}$$$$ (last 3' nucleoside missing)” it is 1.75 score 0-7; for “RNA1{[moe](A)[sp].[moe]([m5C])[sp].[moe](T)p.[moe](T)[sp].[moe](T)[sp].[moe]([m5C])[sp].[moe](A)[sp].[moe](T)[sp].[moe](A)p.[moe](A)[sp].[moe](T)[sp].[moe](G)[sp].[moe]([m5C])[sp].[moe](T)p.[moe](G)[sp].[moe](G)}$$$$ (last 3' nucleoside missing)” it is 0 score 0-7.
“RNA1{[moe](T)[sp].[moe](T)p.[moe]([m5C])[sp].[moe](A)[sp].[moe]([m5C])[sp].[moe](T)[sp].[moe](T)[sp].[moe](T)[sp].[moe]([m5C])p.[moe](A)[sp].[moe](T)[sp].[moe](A)[sp].[moe](A)[sp].[moe](T)[sp].[moe](G)[sp].[moe]([m5C])[sp].[moe](T)[sp].[moe](G)}$$$$ (last 3' nucleoside missing)” gave a 3 h FOB score of 2.5 score 0-7.
The result for “RNA1{[moe]([m5C])[sp].[moe](A)[sp].[moe]([m5C])[sp].[moe](T)[sp].[moe](T)[sp].[moe](T)[sp].[moe]([m5C])[sp].[moe](A)[sp].[moe](T)[sp].[moe](A)[sp].[moe](A)[sp].[moe](T)[sp].[moe](G)[sp].[moe]([m5C])[sp].[moe](T)[sp].[moe](G)}$$$$ (last 3' nucleoside missing)” reads 3.25 score 0-7; that for “RNA1{[moe](T)[sp].[moe]([m5C])p.[moe](A)[sp].[moe]([m5C])[sp].[moe](T)[sp].[moe](T)[sp].[moe](T)[sp].[moe]([m5C])[sp].[moe](A)[sp].[moe](T)[sp].[moe](A)[sp].[moe](A)[sp].[moe](T)[sp].[moe](G)[sp].[moe]([m5C])p.[moe](T)[sp].[moe](G)}$$$$ (last 3' nucleoside missing)”, 3.5 score 0-7; that for “RNA1{[moe](A)[sp].[moe]([m5C])[sp].[moe](T)[sp].[moe](T)[sp].[moe](T)[sp].[moe]([m5C])p.[moe](A)p.[moe](T)p.[moe](A)p.[moe](A)p.[moe](T)p.[moe](G)[sp].[moe]([m5C])[sp].[moe](T)[sp].[moe](G)[sp].[moe](G)}$$$$ (last 3' nucleoside missing)”, 0 score 0-7.
The figure for “RNA1{[moe]([m5C])[sp].[moe](A)p.[moe]([m5C])[sp].[moe](T)[sp].[moe](T)[sp].[moe](T)[sp].[moe]([m5C])[sp].[moe](A)p.[moe](T)[sp].[moe](A)[sp].[moe](A)[sp].[moe](T)[sp].[moe](G)[sp].[moe]([m5C])[sp].[moe](T)[sp].[moe](G)[sp].[moe](G)}$$$$ (last 3' nucleoside missing)” is 1 score 0-7; for “RNA1{[moe](T)[sp].[moe](T)[sp].[moe]([m5C])[sp].[moe](A)[sp].[moe]([m5C])[sp].[moe](T)[sp].[moe](T)[sp].[moe](T)[sp].[moe]([m5C])[sp].[moe](A)[sp].[moe](T)[sp].[moe](A)[sp].[moe](A)[sp].[moe](T)[sp].[moe](G)[sp].[moe]([m5C])[sp].[moe](T)[sp].[moe](G)}$$$$ (last 3' nucleoside missing)” it is 3.75 score 0-7; for “RNA1{[moe]([m5C])[sp].[moe](A)[sp].[moe]([m5C])[sp].[moe](T)[sp].[moe](T)[sp].[moe](T)[sp].[moe]([m5C])p.[moe](A)p.[moe](T)p.[moe](A)p.[moe](A)[sp].[moe](T)[sp].[moe](G)[sp].[moe]([m5C])[sp].[moe](T)[sp].[moe](G)[sp].[moe](G)}$$$$ (last 3' nucleoside missing)” it is 0 score 0-7.
In turn, “RNA1{[moe]([m5C])[sp].[moe](A)[sp].[moe]([m5C])[sp].[moe](T)[sp].[moe](T)[sp].[moe](T)[sp].[moe]([m5C])[sp].[moe](A)[sp].[moe](T)p.[moe](A)p.[moe](A)p.[moe](T)p.[moe](G)[sp].[moe]([m5C])[sp].[moe](T)[sp].[moe](G)[sp].[moe](G)}$$$$ (last 3' nucleoside missing)” came in with a 3 h FOB score of 0 score 0-7.
The result for “RNA1{[moe](A)[sp].[moe](T)[sp].[moe](T)[sp].[moe]([m5C])[sp].[moe](A)[sp].[moe]([m5C])[sp].[moe](T)[sp].[moe](T)[sp].[moe](T)[sp].[moe]([m5C])[sp].[moe](A)[sp].[moe](T)[sp].[moe](A)[sp].[moe](A)[sp].[moe](T)[sp].[moe](G)p.[moe]([m5C])p.[moe](T)[sp].[moe](G)}$$$$ (last 3' nucleoside missing)” reads 3 score 0-7.
